Consider 27 compounds from PMC4778717 (ChemMedChem, 2015).

Test [1] has as its system E. coli NR698. The experiment in a line: Bacteriostatic effect. It counts as cell-based. The settings on record: Escherichia coli, NR698, 24 h, read-out: MIC, E. coli NR698.
The subject of test [2] is S. aureus 6538. As to the kind of experiment: Bacteriostatic effect. The settings on record: Staphylococcus aureus, 6538, 24 h, read-out: MIC, S. aureus 6538. It counts as cell-based.
In test [3] the target is EcSecAN68 (Escherichia coli, UniProt P10408). As to the kind of experiment: biochemical. Details: species or system E. coli.
EcSecAN68, sequence (P10408 1-610): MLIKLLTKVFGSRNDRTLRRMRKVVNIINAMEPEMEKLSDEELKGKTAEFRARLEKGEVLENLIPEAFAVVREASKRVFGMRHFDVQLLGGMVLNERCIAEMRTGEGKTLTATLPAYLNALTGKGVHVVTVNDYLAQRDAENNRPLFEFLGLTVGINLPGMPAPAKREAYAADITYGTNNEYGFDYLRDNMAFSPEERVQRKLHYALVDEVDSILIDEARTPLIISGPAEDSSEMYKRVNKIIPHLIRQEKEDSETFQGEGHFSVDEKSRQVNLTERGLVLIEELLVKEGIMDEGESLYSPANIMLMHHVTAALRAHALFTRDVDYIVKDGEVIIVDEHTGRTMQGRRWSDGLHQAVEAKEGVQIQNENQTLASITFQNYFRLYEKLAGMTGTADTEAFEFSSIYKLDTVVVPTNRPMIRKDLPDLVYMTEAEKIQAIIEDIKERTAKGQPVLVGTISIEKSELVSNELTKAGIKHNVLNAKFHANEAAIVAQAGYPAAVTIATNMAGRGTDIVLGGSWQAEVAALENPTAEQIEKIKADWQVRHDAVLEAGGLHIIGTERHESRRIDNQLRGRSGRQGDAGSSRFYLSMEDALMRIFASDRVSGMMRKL
The test system of test [4] is S. aureus Mu50. The experiment in a line: Bacteriostatic effect. It counts as cell-based. To be noted: for Fold by which 7b and 12a are more effective than the antibiotic (MIC): S. aureus Mu50, label = antibiotic compared; for MIC: Staphylococcus aureus, MRSA, read-out: MIC, S. aureus Mu50; for MIC, S. aureus Mu50: MRSA strain Mu50, comparison with clinically used antibiotics.

≈ marks a conversion by molar mass, not a printed value.

Consider `CSc1nc(Cl)cc(Sc2nnc(-c3cccc(C(F)(F)F)c3)[nH]2)n1` [Compound 7j, 4-Chloro-2-(methylthio)-6-((5-(3-(trifluoromethyl)phenyl)-4H-1,2,4-triazol-3-yl)thio) pyrimidine], for which the MIC in test [1] and in test [2] was > 250 µM throughout. Moreover, the IC50 in test [3] is < 50 µM.

With `Cc1cc(C)cc(-c2nnc(Sc3cc(Cl)ncn3)[nH]2)c1` [Compound 9a, 4-Chloro-6-((5-(3,5-dimethylphenyl)-4H-1,2,4-triazol-3-yl)thio) pyrimidine], the MIC in test [1] and in test [2] was > 250 µM throughout. The IC50 in test [3] was > 200 µM.

In the case of `FC(F)(F)c1cc(-c2nnc(Sc3cc(Cl)ncn3)[nH]2)cc(C(F)(F)F)c1` [Compound 9b, 4-((5-(3,5-Bis(trifluoromethyl)phenyl)-4H-1,2,4-triazol-3-yl)thio)-6-chloropyrimidine], the MIC in test [1] is 35.4 µM (≈ 15.1 µg/mL); in test [2], 18.8 µM (≈ 8 µg/mL). This compound gave an IC50 in test [3] of 100 µM.

As to `FC(F)(F)c1cc(-c2nnc(Sc3cc(Cl)nc(Oc4ccccc4)n3)[nH]2)cc(C(F)(F)F)c1` [Compound 12c, 4-((5-(3,5-Bis(trifluoromethyl)phenyl)-4H-1,2,4-triazol-3-yl)thio)-6-chloro-2-phenoxy-pyrimidine], the MIC is 8.3 µM (≈ 4.3 µg/mL) in test [1] and 3.1 µM (≈ 1.61 µg/mL) in test [2]. This compound also returned an IC50 in test [3] of 9 µM.

Take `Fc1cc(F)cc(-c2nnc(Sc3cc(Cl)nc(Sc4ccccc4)n3)[nH]2)c1` [Compound 12f, 4-Chloro-6-((5-(3,5-difluorophenyl)-4H-1,2,4-triazol-3-yl)thio)-2-(phenylthio) pyrimidine]: the MIC turned out to be 31.3 µM (≈ 13.6 µg/mL) in test [1] and 20.8 µM (≈ 9.03 µg/mL) in test [2]. Further, in test [3], the IC50 is < 50 µM.

In the case of `FC(F)(F)c1cccc(-c2nnc(Sc3cc(Cl)nc(Sc4ccccc4)n3)[nH]2)c1` [Compound 12g, 4-Chloro-2-(phenylthio)-6-((5-(3-(trifluoromethyl)phenyl)-4H-1,2,4-triazol-3-yl)thio) pyrimidine], the MIC in test [1] and in test [2] was 18.8 µM (≈ 8.76 µg/mL) in each case. Further, the IC50 in test [3] was < 50 µM.

As for `COc1cc(OC)cc(-c2nnc(Sc3cc(Cl)nc(Sc4ccccc4)n3)[nH]2)c1` [Compound 12h, 4-Chloro-6-((5-(3,5-dimethoxyphenyl)-4H-1,2,4-triazol-3-yl)thio)-2-(phenylthio) pyrimidine], the MIC in test [1] was > 250 µM; in test [2], ≥ 100 µM. In addition, in test [3], the IC50 was < 50 µM.

Consider `FC(F)(F)c1ccc(-c2nnc(Sc3cc(Cl)nc(Sc4ccccc4)n3)[nH]2)cc1` [Compound 12i, 4-Chloro-2-(phenylthio)-6-((5-(4-(trifluoromethyl)phenyl)-4H-1,2,4-triazol-3-yl)thio) pyrimidine], for which the MIC in test [1] amounted to 12.5 µM (≈ 5.82 µg/mL); in test [2], 8.3 µM (≈ 3.87 µg/mL). In addition, in test [3], the IC50 is < 50 µM.

Consider `COc1cc(O)cc(-c2nnc(Sc3cc(Cl)nc(Sc4ccccc4)n3)[nH]2)c1` [Compound 12j, 3-(5-((6-Chloro-2-(phenylthio)pyrimidin-4-yl)thio)-4H-1,2,4-triazol-3-yl)-5-methoxy phenol], for which the MIC in test [1] is > 250 µM; in test [2], ≥ 250 µM. In addition, the 50% inhibitory concentration (IC50) in test [3] was < 50 µM.

As for `CSc1nc(Cl)cc(Sc2nnc(-c3cc(C(F)(F)F)cc(C(F)(F)F)c3)o2)n1` [Compound 15, 2-(3,5-Bis(trifluoromethyl)phenyl)-5-((6-chloro-2-(methylthio)pyrimidin-4-yl)thio)-1,3,4-oxadiazole], the minimum inhibitory concentration (MIC) in test [1] is > 100 µM; in test [2], > 250 µM. In addition, half-maximal inhibition in test [3] (IC50) required 200 µM.

Turning to `FC(F)(F)c1cc(-c2n[nH]c(Sc3nc(Cl)cc(Cl)n3)n2)cc(C(F)(F)F)c1` [Compound 16a, 2-((3-(3,5-Bis(trifluoromethyl)phenyl)-1H-1,2,4-triazol-5-yl)thio)-4,6-dichloropyrimidine], the results for the MIC in test [1] and in test [2] were 12.5 µM (≈ 5.75 µg/mL) and 6.3 µM (≈ 2.9 µg/mL), respectively. In test [3], this compound came in with an IC50 of 50 µM.

Turning to `Fc1cccc(-c2nnc(Sc3nc(Cl)cc(Cl)n3)[nH]2)c1` [Compound 16d, 4,6-Dichloro-2-((5-(3-fluorophenyl)-4H-1,2,4-triazol-3-yl)thio) pyrimidine], the MIC was 200 µM (≈ 68.4 µg/mL) in test [1] and ≥ 100 µM in test [2]. The IC50 in test [3] is > 100 µM.

For `FC(F)(F)c1cc(-c2nnc(Sc3nc(Cl)cc(NCc4ccccc4)n3)[nH]2)cc(C(F)(F)F)c1` [Compound 16e, N-Benzyl-2-((3-(3,5-bis(trifluoromethyl)phenyl)-4H-1,2,4-triazol-5-yl)thio)-6-chloro-pyrimidin-4-amine], the values for the MIC in test [1] and in test [2] were ≥ 250 µM and 50 µM (≈ 26.5 µg/mL), respectively. The IC50 in test [3] is > 50 µM.

Regarding `FC(F)(F)c1cc(-c2nnc(Sc3nc(Cl)cc(Cl)n3)o2)cc(C(F)(F)F)c1` [Compound 17, 2-(3,5-Bis(trifluoromethyl)phenyl)-5-((4,6-dichloropyrimidin-2-yl)thio)-1,3,4-oxadiazole], the figures for the MIC in test [1] and in test [2] were > 250 µM and 18.8 µM (≈ 8.67 µg/mL), respectively. The compound also returned an IC50 in test [3] of 70 µM.

`FC(F)(F)c1cc(-c2n[nH]c(Oc3nc(Cl)cc(Oc4nnc(-c5cc(C(F)(F)F)cc(C(F)(F)F)c5)[nH]4)n3)n2)cc(C(F)(F)F)c1` [Compound 18]: the MIC in test [1] is > 250 µM; in test [2] it was 250 µM (≈ 176 µg/mL). Moreover, the IC50 in test [3] is < 50 µM.

Take `N#Cc1c(-c2ccc(Br)cc2)nc(Sc2nc(Cl)cc(Cl)n2)[nH]c1=O` [Compound 20a, 4-(4-Bromophenyl)-2-((4,6-dichloropyrimidin-2-yl)thio)-6-oxo-1,6-dihydropyrimidine-5-carbonitrile]: the MIC in test [1] and in test [2] was > 250 µM throughout. The IC50 in test [3] was < 50 µM.

As to `CCc1ccc(-c2nc(Sc3nc(Cl)cc(Cl)n3)[nH]c(=O)c2C#N)cc1` [Compound 20b, 2-((4,6-Dichloropyrimidin-2-yl)thio)-4-(4-ethylphenyl)-6-oxo-1,6-dihydropyrimidine-5-carbonitrile], the MIC in test [1] and in test [2] was > 250 µM each time. Also, in test [3], the IC50 was < 50 µM.

On to `CSc1nc(Cl)c2c(n1)Sc1nnc(-c3cc(C(F)(F)F)cc(C(F)(F)F)c3)n1N=C2` [Compound 24], for which the MIC in test [1] turned out to be 12.5 µM (≈ 6.21 µg/mL); in test [2], 3.1 µM (≈ 1.54 µg/mL). Besides, in test [3], the IC50 is < 25 µM.

As to `CSc1nc(Cl)c2c(n1)Sc1nnc(-c3cc(C(F)(F)F)cc(C(F)(F)F)c3)n1NC2` [Compound 25], the MIC in test [1] was > 250 µM; in test [2], > 100 µM. For the same compound, half-maximal inhibition in test [3] (IC50) was put at 46 µM.

In the case of `CSC1=NC2=C(CN1)CNn1c(nnc1-c1cc(C(F)(F)F)cc(C(F)(F)F)c1)S2` [Compound 26], the MIC in test [1] and in test [2] was > 100 µM in each case. The compound further returned an IC50 in test [3] of 50 µM.

For `CC1(C)S[C@@H]2[C@H](NC(=O)[C@H](N)c3ccccc3)C(=O)N2[C@H]1C(=O)O` [ampicillin], in test [4], the “Fold by which 7b and 12a are more effective than the antibiotic (MIC)” value (from here on “Fold”) is on record as > 1300 fold; the MIC was determined as 1000 µg/mL (≈ 2860 µM).

In the case of `CC[C@H]1OC(=O)[C@H](C)[C@@H](O[C@H]2C[C@@](C)(OC)[C@@H](O)[C@H](C)O2)[C@H](C)[C@@H](O[C@@H]2O[C@H](C)C[C@H](N(C)C)[C@H]2O)[C@](C)(O)C[C@@H](C)C(=O)[C@H](C)[C@@H](O)[C@]1(C)O` [erythromycin], in test [4], the “Fold” value is on record as > 1600 fold; the MIC stood at 1250 µg/mL (≈ 1700 µM).

Take `NC[C@H]1O[C@H](O[C@H]2[C@H](O)[C@@H](O[C@H]3O[C@H](CO)[C@@H](O)[C@H](N)[C@H]3O)[C@H](N)C[C@@H]2N)[C@H](O)[C@@H](O)[C@@H]1O` [kanamycin]: in test [4], the “MIC, S. aureus Mu50” value was 1000 µg/mL (≈ 2060 µM); the “Fold” value is on record as > 1300 fold.

For `CCn1cc(C(=O)O)c(=O)c2cc(F)c(N3CCNCC3)cc21` [norfloxacin], the “Fold” value in test [4] is given as > 330 fold.

With `CO[C@H]1/C=C/O[C@@]2(C)Oc3c(C)c(O)c4c(O)c(c(/C=N/N5CCN(C)CC5)c(O)c4c3C2=O)NC(=O)/C(C)=C\C=C\[C@H](C)[C@H](O)[C@@H](C)[C@@H](O)[C@@H](C)[C@H](OC(C)=O)[C@@H]1C` [rifampicin], in test [4], the “Fold” value is > 1300 fold; the minimum inhibitory concentration (MIC) was determined as 1000 µg/mL (≈ 1220 µM).

Regarding `CN(C)[C@@H]1C(O)=C(C(N)=O)C(=O)[C@@]2(O)C(O)=C3C(=O)c4c(O)cccc4[C@@](C)(O)[C@H]3C[C@@H]12` [tetracycline], in test [4], the “Fold” value is given as > 80 fold; the MIC turned out to be 63 µg/mL (≈ 142 µM).

As for polymyxin B, in test [4], the “MIC, S. aureus Mu50” value was found to be 31 µg/mL; the “Fold” value is > 40 fold.

Broadly, the MIC is the smallest concentration in the dilution series that meets the test's criterion for growth inhibition. For orientation: IC50 means the concentration that inhibits the measured activity by half. Read a low IC50 as greater potency.
